{"source": "patent US12544375B2", "about": "“Small molecule therapeutic for parkinson's disease paired with a biomarker of therapeutic activity” (The Board of Trustees of the Leland Stanford Junior …, priority 2019, dated 2026)", "system": "iPSC-derived neurons", "test": "Mitochondrial motility and clearance in axons of iPSC-derived neurons, live imaging", "assay_type": "cell-based, human", "details": "5 μM for 24 hrs", "description": "FIG. 3A-FIG. 3D. Miro1 Reducer Rescues Parkinson's Neurodegeneration. (FIG. 3A) Fibroblasts were treated, lysed, and blotted as indicated. Band intensities are normalized to those of ATP5β from the same blots and compared to “Healthy-2, no treatment”. n=4. (FIG. 3B-FIG. 3C) iPSC-derived neurons were treated as indicated and immunostained with anti-TH (FIG. 3B) or stained with PI and Dapi (FIG. 3C). Both Antimycin A and Miro1 Reducer were dissolved in ethanol. Neurons were pretreated with Miro1 Reducer 24 hrs before the application of Antimycin A for another 6 hrs. The same volume of ethanol was applied at the same time in negative controls. (FIG. 3B) The density of TH-positive neurons is calculated in each condition under 20×, from 10 fields each experiment, 3-4 experiments. […] (FIG. 3C) The percentage of PI-positive cells out of total cells (Dapi-positive) is calculated. n=20 fields each experiment, 4 experiments. […] Graphs of Mean±S.E.M show the percent of time each mitochondrion is in motion (red and blue, compared to “Wild-type-I, before treatment”), and the mitochondrial intensity normalized to that of the same axonal region at “0 min” and expressed as a fraction of the mean of “Wild-type-I, 0 min”. n=33-77 mitochondria from 5-8 axons from 5-8 separate transfections. […]\nLive Image Acquisition and Quantification. […]", "data": [{"smiles": "O=C(Nc1ccc(Nc2cc(-n3ccnc3)ncn2)cc1)Nc1cccc(F)c1", "note": "[Miro1 Reducer]", "values": [{"measurement": "basal motility of polarized, healthy mitochondria", "result": "did not affect"}, {"measurement": "delayed arrest and clearance of depolarized mitochondria", "setting": "then 100 μM Antimycin A, PD patient neurons", "result": "rescued the delayed arrest and clearance of depolarized mitochondria"}]}]}
